# Assay results reported in patent US20060166900A1, “Salt of morphine-6-glucuronide” (CeNeS Limited, priority 2002, published 2006).
# Key:
# Format in all cases: physicochemical
# [1] = Water content by Karl Fisher analysis on storage (Example 3)
# Experimental: Water content (% w/w) by Karl Fisher analysis
# (§1) Each test material was stored between 2-8*C prior to placing on stability. Each material was sub-divided into 900 mg aliquots, transferred to brown opaque HDPE plastic bottles and flushed with Argon prior to sealing. Sufficient samples were provided for each time point as well as spares for each storage condition. The samples were placed in appropriate incubators previously commissioned at storage conditions 25° C./60% RH, 40° C./75% RH and 60° C.
# Water Content by Karl Fisher Analysis
# Water content was determined in duplicate on an aliquot of equilibrated material (approximately 100 mg) using a Tritrino 720 KFS Titrator.
# [2] = Colour of solution by visible spectrophotometry on storage (Example 3); conditions: 5% w/v solution in water
# Experimental: Colour of solution by UV spectrophotometry.
# as §1
# Colour by Visible Spectrophotometry
# A 5% w/v solution of test material was prepared in water and the absorbance measured at 420 nm in a 1 cm silica cell using a Unicam UV4 Visible/UV spectrophotometer.
# [3] = Stability of M6G salts at room temperature over 6 years, HPLC; conditions: for Assay M6G corr.: content calculated as M6G derivative; for degradation / discolouration: storage at room temperature for six years, hydrobromide
# [4] = Stability indicating HPLC assay and related substances on storage (Example 3)
# Experimental: Assay (% w/w) and related substances determination
# as §1
# Testing Procedures Test for Identity Content and Impurities
# Testing was performed in duplicate (2×25 mg) in accordance with a stability indicating HPLC assay method. The assay results were reported as M6G as is, M6G as the anhydrous, solvent free material and the anhydrous solvent free material corrected for the salt form using the relevant conversion factor.
# [5] = Visual appearance on storage (Example 3)
# Experimental: as §1
# The samples were stored for analysis according to the following table: […]
# [6] = almost 6 years at room temperature
# [7] = listed as hydrobromide salt of M6G
smiles,measurement,setting,value
Br.CN1CC[C@]23c4c5ccc(O)c4O[C@H]2[C@@H](O[C@@H]2O[C@H](C(=O)O)[C@@H](O)[C@H](O)[C@H]2O)C=C[C@H]3[C@H]1C5 [Morphine-6-glucuronide hydrobromide],Moisture,"[1]; 1 month, 25° C./60% RH",2.56 % w/w
same,Moisture,"[1]; 1 month, 40° C./75% RH",3.19 % w/w
same,Moisture,"[1]; 1 month, 60° C.",1.95 % w/w
same,Moisture,"[1]; 3 months, 25° C./60% RH",3.28 % w/w
same,Moisture,"[1]; 3 months, 40° C./75% RH",4.24 % w/w
same,Moisture,[1]; Initial,2.38 % w/w
same,Colour,"[2]; 1 month, 25° C./60% RH",0.073 Abs@420 nm
same,Colour,"[2]; 1 month, 40° C./75% RH",0.064 Abs@420 nm
same,Colour,"[2]; 1 month, 60° C.",0.261 Abs@420 nm
same,Colour,"[2]; 3 months, 25° C./60% RH",0.046 Abs@420 nm
same,Colour,"[2]; 3 months, 40° C./75% RH",0.066 Abs@420 nm
same,Colour,[2]; Initial,0.029 Abs@420 nm
same,HN-33177,[3]; 0 years,0.3%
same,HN-75083,[3]; 0 years,<0.1%
same,Unknown related substances (sum area %),[3]; 0 years,<0.1 area %
same,Assay M6G corr.,[3]; 0 years,90.7%
same,HN-33177,[3]; 6 years at ambient temperature,0.4%
same,HN-67002,[3]; 6 years at ambient temperature,0.5%
same,HN-67003,[3]; 6 years at ambient temperature,0.2%
same,Unknown related substances (sum area %),[3]; 6 years at ambient temperature,1.0 area %
same,Assay M6G corr.,[3]; 6 years at ambient temperature,96.3%
same,largest unidentified peak,[3]; [6],≤ 0.4 area %
same,peaks present in the chromatogram that cannot be identified by retention time,[3]; [6],4
same,degradation,[3]; listed as M6G.HBr,very limited amount of degradation
same,discolouration,[3]; listed as M6G.HBr,no discolouration
same,degradation,[3]; [7],very limited degradation
same,discolouration,[3]; [7],not discoloured
same,Known Related Substances HN33177,"[4]; 1 month, 25° C./60% RH",0.74%
same,Known Related Substances HN75083,"[4]; 1 month, 25° C./60% RH",0.03%
same,"M6G Assay, Anhydrous basis","[4]; 1 month, 25° C./60% RH",85.18 % w/w
same,"M6G Assay, As is basis","[4]; 1 month, 25° C./60% RH",83.02 % w/w
same,"M6G Assay, Corrected for the salt form","[4]; 1 month, 25° C./60% RH",100.11 % w/w
same,Total Known,"[4]; 1 month, 25° C./60% RH",0.77%
same,Total Related Substances,"[4]; 1 month, 25° C./60% RH",0.84%
same,Total Unknown,"[4]; 1 month, 25° C./60% RH",0.07%
same,Known Related Substances HN33177,"[4]; 1 month, 40° C./75% RH",0.74%
same,Known Related Substances HN75076,"[4]; 1 month, 40° C./75% RH",0.01%
same,Known Related Substances HN75083,"[4]; 1 month, 40° C./75% RH",0.05%
same,"M6G Assay, Anhydrous basis","[4]; 1 month, 40° C./75% RH",85.09 % w/w
same,"M6G Assay, As is basis","[4]; 1 month, 40° C./75% RH",82.40 % w/w
same,"M6G Assay, Corrected for the salt form","[4]; 1 month, 40° C./75% RH",100.01 % w/w
same,Total Known,"[4]; 1 month, 40° C./75% RH",0.80%
same,Total Related Substances,"[4]; 1 month, 40° C./75% RH",0.80%
same,Total Unknown,"[4]; 1 month, 40° C./75% RH",0.00%
same,Known Related Substances HN33177,"[4]; 1 month, 60° C.",0.66%
same,Known Related Substances HN67003,"[4]; 1 month, 60° C.",0.10%
same,Known Related Substances HN75076,"[4]; 1 month, 60° C.",0.04%
same,Known Related Substances HN75083,"[4]; 1 month, 60° C.",0.02%
same,"M6G Assay, Anhydrous basis","[4]; 1 month, 60° C.",84.44 % w/w
same,"M6G Assay, As is basis","[4]; 1 month, 60° C.",82.82 % w/w
same,"M6G Assay, Corrected for the salt form","[4]; 1 month, 60° C.",99.25 % w/w
same,Total Known,"[4]; 1 month, 60° C.",0.82%
same,Total Related Substances,"[4]; 1 month, 60° C.",1.20%
same,Total Unknown,"[4]; 1 month, 60° C.",0.38%
same,stability based on % w/w assay,[4]; 3 month assay data,most stable
same,Known Related Substances HN33177,"[4]; 3 months, 25° C./60% RH",0.77%
same,Known Related Substances HN75083,"[4]; 3 months, 25° C./60% RH",0.04%
same,"M6G Assay, Anhydrous basis","[4]; 3 months, 25° C./60% RH",86.19 % w/w
same,"M6G Assay, As is basis","[4]; 3 months, 25° C./60% RH",84.30 % w/w
same,"M6G Assay, Corrected for the salt form","[4]; 3 months, 25° C./60% RH",101.30 % w/w
same,Total Known,"[4]; 3 months, 25° C./60% RH",0.81%
same,Total Related Substances,"[4]; 3 months, 25° C./60% RH",0.93%
same,Total Unknown,"[4]; 3 months, 25° C./60% RH",0.12%
same,Known Related Substances HN33177,"[4]; 3 months, 40° C./75% RH",0.70%
same,Known Related Substances HN75076,"[4]; 3 months, 40° C./75% RH",0.02%
same,"M6G Assay, Anhydrous basis","[4]; 3 months, 40° C./75% RH",85.85 % w/w
same,"M6G Assay, As is basis","[4]; 3 months, 40° C./75% RH",83.14 % w/w
same,"M6G Assay, Corrected for the salt form","[4]; 3 months, 40° C./75% RH",100.90 % w/w
same,Total Known,"[4]; 3 months, 40° C./75% RH",0.72%
same,Total Related Substances,"[4]; 3 months, 40° C./75% RH",0.72%
same,Total Unknown,"[4]; 3 months, 40° C./75% RH",0.00%
same,increase in the amount of degradation products as measured by HPLC,"[4]; 3 months, 40° C./75% RH",basically no increase
same,stability assessment,[4]; 25° C./60% RH and 40° C./75% RH for 3 months and 60° C. for 1 month,stable
same,Known Related Substances HN33177,[4]; Initial,0.72%
same,Known Related Substances HN67003,[4]; Initial,0.04%
same,Known Related Substances HN75083,[4]; Initial,0.10%
same,"M6G Assay, Anhydrous basis",[4]; Initial,83.63 % w/w
same,"M6G Assay, As is basis",[4]; Initial,82.26 % w/w
same,"M6G Assay, Corrected for the salt form",[4]; Initial,98.29 % w/w
same,Total Known,[4]; Initial,0.86%
same,Total Related Substances,[4]; Initial,0.94%
same,Total Unknown,[4]; Initial,0.08%
same,overall stability comparison,[4]; overall review of Example 3 data,more stable than all other salts and the base
same,Appearance,"[5]; 1 month, 25° C./60% RH",White crystalline powder
same,Appearance,"[5]; 1 month, 40° C./75% RH",White crystalline powder
same,Appearance,"[5]; 1 month, 60° C.",White crystalline powder
same,Appearance,"[5]; 3 months, 25° C./60% RH, hydrobromide",White crystalline powder
same,Appearance,"[5]; 3 months, 25° C./60% RH, listed as hydrobromide, hydrobromide",white crystalline solids
same,Appearance,"[5]; 3 months, 40° C./75% RH",White crystalline powder
same,Appearance,[5]; Initial,White crystalline powder
